Data from patent US20260355199A1, “COMPOSITIONS AND METHODS FOR TREATING OR PREVENTING NONALCOHOLIC STEATOHEPATITIS (NASH), ANOREXIA, DEPRESSION, ENDOMETRIOSIS, AND OTHER DISEASES OR DISORDERS” (priority 2022, published 2026).
“Also recorded” adds a separate entry of the source.

Experiments:
Tet3 and Agrp = Tet3 and Agrp expression in leptin-treated GT1-7 cells; format: cell-based, mouse
Experimental: Mouse GT1-7 hypothalamic neuronal cell line (Sigma-Aldrich, SCC116), human SH-SY5Y neuronal blastoma cell line (ATCC, CRL-2266), and embryonic mouse hypothalamus cell line N11 (mHypoE-N11) (Cedarlane, CLU107) were purchased and cultured according to the manufacturers' instructions. For siRNA transfection in a 24-well plate scale, cells were seeded at a density of 2×10^5 cells/well the day before transfection. To prepare siRNA transfection solution for each well of cells, 5 pmol of NT siRNA (non-targeting control siRNA, AM4636, Ambion), Tet3 siRNA (siRNA specifically targeting mouse Tet3, 4390815/s101483, Ambion), or TET3 siRNA (siRNA specifically targeting human TET3, 4392420/s47238, Ambion) (Cao et al., 2019, Oncogene, 38:5356-5366; Xu et al., 2020, Cell Rep., 30:1310-1318) were mixed with 25 μl of OPTI-MEM (Gibco, 31985-070) by gentle pipetting (Cao, T. et al., 2019, Oncogene, 38:5356-5366; Xu, Y. et al., 2020, Cell Reports, 30:1310-1318 e5). In parallel, 1.5 μl of Lipofectamine RNAiMAX (Invitrogen, 13778-150) was mixed with 25 μl of OPTI-MEM by gentle pipetting. Following 5 min of incubation at room temperature, the resulting 50 μl of transfection solution was added to one well of cells containing 1 ml culture media. […]

Caspase-1 = Caspase-1 assay in human MDMs; format: cell-based; details: 10 μM, 48 h
Experimental: For TET3 expression restoration experiments, cells seeded in 24-well plates were infected with Ad-GFP or Ad-TET3 at 4000 gc/cell. Following 16 h of infection, vehicle or Bobcat339 were added at a final concentration of 10 μM. Protein and RNA were isolated 48 hours later and analyzed.
These were carried out using the Apoptosis/Caspase-1 assay kit (MyBioSource, MBS258046). Briefly, after wash with PBS, cells were incubated with 1×FAM-FLCA working solution in 300 μL growth media at 37 °C for 1 hour, followed by wash with 1× Cellular Wash Buffer three times. Hoechst 33342 was applied to counter-stain the cells for 15 min. Cells were then covered with mounting media and coverslips and scoped using a Keyence BZ-X700 fluorescence microscope.

[1] = Liver toxicity (plasma ALT, AST, bilirubin) in endometriosis mice; format: in vivo, mouse; details: 6 weeks; for liver toxicity (plasma ALT, AST, bilirubin): 2.5 mg/kg i.p. once a week
Experimental: Blood samples were collected in EDTA tubes (Microtainer with K2EDTA, BD, 365974) by cardiac puncture of terminally anesthetized animals. The tubes were centrifuged at 2,000×g at 4 °C for 20 min, and plasma was collected and stored at −80 °C until use. Blood chemistry were measured according to the manufacturer's instructions. Kits used to measure alanine transaminase (EALT-100) and aspartate transaminase (EASTR-100) were purchased from Bioassay Systems. The bilirubin assay kit (MAK126) was purchased from Sigma Aldrich.

OC-bearing mice = assay: Ovarian cancer (ID8-luc2)-induced anorexia model; format: in vivo; details: 0.05 mg/mouse once a week i.p.
Description: Furthermore, the present studies use the luciferase-expressing mouse ovarian surface epithelial cancer cell line ID8-luc2 (Liao J B et al., 2015, J Immunother Cancer, 3:16) that was originally derived from C57BL/6 mice (Roby K F et al., 2000, Carcinogenesis, 21:585-591). ID8-luc2 allow in vivo imaging of intraperitoneal tumors to monitor tumor growth (Udumula M P et al., 2021, Mol Metab., 53:101272; Liao J B et al., 2015, J Immunother Cancer, 3:16). Agrp-IRES-Cre::LSL-Cas9-GFP mice (C57BL/6 background) that express GFP specifically in AgRP neurons are used, hereafter called AgRP-GFP. […] Tumors were readily detected by bioluminescent imaging 10-14 days after inoculation (Udumula M P et al., 2021, Mol Metab., 53:101272; Liao J B et al., 2015, J Immunother Cancer, 3:16). Visible ascites (detected by abdominal swelling) developed at ~3 weeks following implantation (Roby K F et al., 2000, Carcinogenesis, 21:585-591). […] Bioluminescence signals of the tumor are recorded using the Xenogen IVIS system. Food intake is monitored manually on a daily basis and energy expenditure is measured using a computer-controlled indirect calorimetry system.
Additional studies test whether Bobcat339 alleviates OC-induced anorexia and hypermetabolism. […] Food intake are monitored daily and energy expenditure are determined once a week for three weeks before euthanasia. […]

TET1 = details: cited from earlier work
TET3 = details: Lv et al., 2023; cited from earlier work

Compound	Tet3 expression (Tet3 and Agrp; leptin 1×10^−8 M vs. 1×10^−10 M)	Agrp expression in response to increased leptin (Tet3 and Agrp; with TET3 knockdown)	apoptosis (Caspase-1) (Caspase-1)	liver toxicity (plasma ALT, AST, bilirubin) [1]	liver toxicity (plasma ALT, AST, bilirubin) ([1]; listed as Bobcat)	liver toxicity ([1]; 3 mg/kg i.p. once a week)	OC progression (OC-bearing mice)	cancer anorexia and hypermetabolism (OC-bearing mice)	inhibitory activity against TET1 (TET1; in the absence of contaminating copper (II))	inhibition of enzymatic activity of TET1 (TET1; initially reported)	minimal effective concentration (TET3) [µM]
leptin: adipose hormone; mouse leptin L3772-1MG or human leptin L4146-1MG, Sigma Aldrich	a positive effect on Tet3 expression; also recorded: upregulated TET3	no longer decreased in response to increased leptin									
Nc1nc(=O)n(-c2cccc(-c3ccccc3)c2)cc1Cl [Bobcat339, 4-Amino-1-[1,1′-biphenyl]-3-yl-5-chloro-2(1H)-pyrimidinone]			increased apoptosis; also recorded: a significant increase in pyroptotic cell death	no evidence of liver toxicity; also recorded: no differences between the groups	no differences between the groups	no evidence of liver toxicity	decreased OC progression	not only prevents cancer anorexia and hypermetabolism from developing but eliminates it after it is established	negligible inhibitory activity	inhibit the enzymatic activity	10
